Test results: patent publication US20250313548A1 (Actio Biosciences, Inc., priority 2023, published 2025)

biological target: human, KCNT1 (Homo sapiens (Human), UniProt Q5JUK3); assay: FLIPR Tl/K Flux Assay; assay type: cell-based; details: HEK293 cells stably expressing human KCNT1; Tl+ flux stimulated with EC80 of agonist Loxapine
Method in brief: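 Inhibition values come from a Hill-equation fit of % inhibition versus log concentration, using normalized fluorescence (Fmax/Fmin) over a 160 s read. The read followed stimulation with Tl+ plus EC80 agonist loxapine after 30 min compound pre-incubation at 25 °C. Cells were KCNT1-expressing HEK293, dye-loaded 1 h in pH 7.4 HEPES/HBSS with 5 mM probenecid.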

Sequence of human, KCNT1 (Q5JUK3 whole entry): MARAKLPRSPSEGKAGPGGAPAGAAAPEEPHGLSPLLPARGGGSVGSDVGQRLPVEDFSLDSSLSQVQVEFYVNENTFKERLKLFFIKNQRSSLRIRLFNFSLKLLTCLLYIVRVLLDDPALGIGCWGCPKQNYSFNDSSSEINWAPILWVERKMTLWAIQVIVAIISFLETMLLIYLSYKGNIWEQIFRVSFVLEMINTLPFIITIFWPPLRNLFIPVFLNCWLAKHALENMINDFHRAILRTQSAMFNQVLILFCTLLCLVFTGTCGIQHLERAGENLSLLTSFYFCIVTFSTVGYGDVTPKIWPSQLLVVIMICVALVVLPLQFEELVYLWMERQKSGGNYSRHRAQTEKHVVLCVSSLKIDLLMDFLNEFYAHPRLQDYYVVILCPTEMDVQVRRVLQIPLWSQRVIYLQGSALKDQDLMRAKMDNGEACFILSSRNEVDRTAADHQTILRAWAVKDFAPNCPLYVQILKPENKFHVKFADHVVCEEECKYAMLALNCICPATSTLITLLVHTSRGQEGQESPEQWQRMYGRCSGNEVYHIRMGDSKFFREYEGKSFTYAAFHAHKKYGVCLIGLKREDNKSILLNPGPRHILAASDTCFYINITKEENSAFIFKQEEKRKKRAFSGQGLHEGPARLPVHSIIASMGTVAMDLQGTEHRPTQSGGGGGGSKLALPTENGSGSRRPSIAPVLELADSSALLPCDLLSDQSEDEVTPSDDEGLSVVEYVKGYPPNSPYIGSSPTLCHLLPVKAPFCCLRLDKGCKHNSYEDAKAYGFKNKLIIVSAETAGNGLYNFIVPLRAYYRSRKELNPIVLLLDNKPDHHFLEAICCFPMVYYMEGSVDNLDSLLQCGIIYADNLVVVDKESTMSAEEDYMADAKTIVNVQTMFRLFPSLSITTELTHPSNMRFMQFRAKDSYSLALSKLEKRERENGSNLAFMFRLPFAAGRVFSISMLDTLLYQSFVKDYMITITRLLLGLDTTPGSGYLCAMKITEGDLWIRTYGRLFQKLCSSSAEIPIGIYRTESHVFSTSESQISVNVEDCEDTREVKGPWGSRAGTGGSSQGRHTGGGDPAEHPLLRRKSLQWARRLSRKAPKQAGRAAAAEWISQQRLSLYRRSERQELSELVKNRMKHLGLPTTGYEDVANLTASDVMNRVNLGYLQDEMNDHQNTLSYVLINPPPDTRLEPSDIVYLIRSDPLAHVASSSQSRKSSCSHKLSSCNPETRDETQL

Row | Compound | IC50 [nM]
1 | O=C(N[C@H]1CCc2nc(-c3ccnc(C(F)(F)F)c3)ccc21)c1cccc(C(F)(F)F)c1 [Compound I-133a, (S)-3-(Trifluoromethyl)-N-(2-(2-(trifluoromethyl)pyridin-4-yl)-6,7-dihydro-5H-cyclopenta[b]pyridin-5-yl)benzamide] | < 250
2 | Cn1nc(C(F)(F)F)cc1C(=O)N[C@H]1CCc2nc(-c3ccnc(C(F)(F)F)c3)ccc21 [Compound I-134a, (S)-1-Methyl-3-(trifluoromethyl)-N-(2-(2-(trifluoromethyl)pyridin-4-yl)-6,7-dihydro-5H-cyclopenta[b]pyridin-5-yl)-1H-pyrazole-5-carboxamide] | < 250
3 | COc1cc(-c2nc3c(o2)[C@@H](NC(=O)c2ccnc(OC(F)(F)F)c2)CCC3)ccn1 [Compound I-135a, (S)-N-(2-(2-Methoxypyridin-4-yl)-4,5,6,7-tetrahydrobenzo[d]oxazol-7-yl)-2-(trifluoromethoxy)isonicotinamide] | < 250
4 | O=C(N[C@H]1CCn2nc(-c3ccnc(C(F)(F)F)c3)cc21)C12CC(C(F)(F)F)(C1)C2 [Compound I-138a, (S)-3-(Trifluoromethyl)-N-(2-(2-(trifluoromethyl)pyridin-4-yl)-5,6-dihydro-4H-pyrrolo[1,2-b]pyrazol-4-yl)bicyclo[1.1.1]pentane-1-carboxamide] | < 250
5 | O=C(N[C@H]1CCn2nc(-c3cc(C(F)(F)F)ncc3F)cc21)c1cccc(C(F)(F)F)c1 [Compound I-139a, (S)-N-(2-(5-Fluoro-2-(trifluoromethyl)pyridin-4-yl)-5,6-dihydro-4H-pyrrolo[1,2-b]pyrazol-4-yl)-3-(trifluoromethyl)benzamide] | < 250
6 | Cc1cc(C#N)cc(C(=O)N[C@H]2CCn3nc(-c4cc(C(F)(F)F)ncc4F)cc32)c1 [Compound I-140a] | < 250
7 | Cc1cnc(C(F)(F)F)cc1-c1cc2n(n1)CC[C@@H]2NC(=O)c1nc(C(F)(F)F)nn1C [Compound I-141a, (S)-1-Methyl-N-(2-(5-methyl-2-(trifluoromethyl)pyridin-4-yl)-5,6-dihydro-4H-pyrrolo[1,2-b]pyrazol-4-yl)-3-(trifluoromethyl)-1H-1,2,4-triazole-5-carboxamide] | < 250
8 | Cn1nc(C(F)(F)F)nc1C(=O)N[C@H]1CCn2nc(-c3cc(C(F)(F)F)ncc3Cl)cc21 [Compound I-142a, (S)-N-(2-(5-Chloro-2-(trifluoromethyl)pyridin-4-yl)-5,6-dihydro-4H-pyrrolo[1,2-b]pyrazol-4-yl)-1-methyl-3-(trifluoromethyl)-1H-1,2,4-triazole-5-carboxamide] | < 250
9 | COc1cc(-c2nc3c(o2)[C@@H](NC(=O)c2cncc(C(F)(F)F)n2)CCC3)ccn1 [Compound I-143a, (S)-N-(2-(2-Methoxypyridin-4-yl)-4,5,6,7-tetrahydrobenzo[d]oxazol-7-yl)-6-(trifluoromethyl)pyrazine-2-carboxamide] | > 1000
10 | Cc1cnc(C(F)(F)F)cc1-c1cc2n(n1)CC[C@@H]2NC(=O)c1cccc(C#N)c1 [Compound I-144a, (S)-3-Cyano-N-(2-(5-methyl-2-(trifluoromethyl)pyridin-4-yl)-5,6-dihydro-4H-pyrrolo[1,2-b]pyrazol-4-yl)benzamide] | < 250
11 | COc1cc(C(=O)N[C@H]2CCn3nc(-c4cc(C(F)(F)F)ncc4F)cc32)ccn1 [Compound I-145a, (S)—N-(2-(5-Fluoro-2-(trifluoromethyl)pyridin-4-yl)-5,6-dihydro-4H-pyrrolo[1,2-b]pyrazol-4-yl)-2-methoxyisonicotinamide] | < 250
12 | Cn1nc(C(F)(F)F)nc1C(=O)N[C@H]1CCn2nc(-c3ccnc(C(C)(F)F)c3)cc21 [Compound I-146a, (S)—N-(2-(2-(1,1-Difluoroethyl)pyridin-4-yl)-5,6-dihydro-4H-pyrrolo[1,2-b]pyrazol-4-yl)-1-methyl-3-(trifluoromethyl)-1H-1,2,4-triazole-5-carboxamide] | < 250
13 | O=C(N[C@H]1CCn2nc(-c3ccnc(C(F)(F)F)c3)cc21)C1CC(C(F)(F)F)C1 (stereo partly drawn) [Compound I-147a, (S)-3-(Trifluoromethyl)-N-(2-(2-(trifluoromethyl)pyridin-4-yl)-5,6-dihydro-4H-pyrrolo[1,2-b]pyrazol-4-yl)cyclobutane-1-carboxamide] | < 250
14 | Cn1nc(C(F)F)nc1C(=O)N[C@H]1CCn2nc(-c3ccnc(C(F)(F)F)c3)cc21 [Compound I-155a, (S)-3-(Difluoromethyl)-1-methyl-N-(2-(2-(trifluoromethyl)pyridin-4-yl)-5,6-dihydro-4H-pyrrolo[1,2-b]pyrazol-4-yl)-1H-1,2,4-triazole-5-carboxamide] | < 250
15 | N#Cc1cccc(C(=O)N[C@H]2CCCCc3oc(-c4ccnc(C(F)(F)F)c4)nc32)c1 [Compound I-160a, (S)-3-cyano-N-(2-(2-(trifluoromethyl)pyridin-4-yl)-5,6,7,8-tetrahydro-4H-cyclohepta[d]oxazol-4-yl)benzamide] | < 250
16 | N#Cc1cccc(C(=O)N[C@@H]2CCCCc3oc(-c4ccnc(C(F)(F)F)c4)nc32)c1 [Compound I-160b, (R)-3-cyano-N-(2-(2-(trifluoromethyl)pyridin-4-yl)-5,6,7,8-tetrahydro-4H-cyclohepta[d]oxazol-4-yl)benzamide] | < 250

Second part, the compound after the results:

Row | IC50 [nM] | Compound
17 | < 250 | O=C(N[C@H]1CCCc2oc(-c3ccnc(C4CC4)c3)nc21)c1cncc(F)c1 [Compound I-132a, (S)-N-(2-(2-Cyclopropylpyridin-4-yl)-4,5,6,7-tetrahydrobenzo[d]oxazol-4-yl)-5-fluoronicotinamide]
18 | < 250 | O=C(N[C@H]1CCCc2oc(-c3ccnc(C4CC4)c3)nc21)c1cncc(C(F)(F)F)c1 [Compound I-137a, (S)-N-(2-(2-Cyclopropylpyridin-4-yl)-4,5,6,7-tetrahydrobenzo[d]oxazol-4-yl)-5-(trifluoromethyl)nicotinamide]
19 | < 250 | COc1cc(-c2nc3c(o2)[C@@H](NC(=O)c2cc(Cl)cc(Cl)c2)CCC3)ccn1 [Compound I-150a, (S)-3,5-Dichloro-N-(2-(2-methoxypyridin-4-yl)-4,5,6,7-tetrahydrobenzo[d]oxazol-7-yl)benzamide]
20 | < 250 | COc1cc(-c2nc3c(o2)[C@@H](NC(=O)c2cccc(OC(F)(F)F)c2)CCC3)ccn1 [Compound I-151a, (S)-N-(2-(2-Methoxypyridin-4-yl)-4,5,6,7-tetrahydrobenzo[d]oxazol-7-yl)-3-(trifluoromethoxy)benzamide]
21 | < 250 | O=C(N[C@H]1CCCc2nc(-c3ccnc(C4CC4)c3)oc21)c1cncc(C(F)(F)F)n1 [Compound I-152a, (S)-N-(2-(2-Cyclopropylpyridin-4-yl)-4,5,6,7-tetrahydrobenzo[d]oxazol-7-yl)-6-(trifluoromethyl)pyrazine-2-carboxamide]
22 | < 250 | O=C(N[C@H]1CCCc2nc(-c3ccnc(C4CC4)c3)oc21)c1cc(Cl)cc(Cl)c1 [Compound I-153a, (S)-3,5-Dichloro-N-(2-(2-cyclopropylpyridin-4-yl)-4,5,6,7-tetrahydrobenzo[d]oxazol-7-yl)benzamide]
23 | < 250 | O=C(N[C@H]1CCCc2nc(-c3cc(C4CC4)ncc3F)oc21)c1cncc(C(F)(F)F)n1 [Compound I-156a]
24 | < 250 | O=C(N[C@H]1CCCc2nc(-c3cc(C4CC4)ncc3F)oc21)c1cc(Cl)cc(Cl)c1 [Compound I-157a, (S)-3,5-Dichloro-N-(2-(2-cyclopropyl-5-fluoropyridin-4-yl)-4,5,6,7-tetrahydrobenzo[d]oxazol-7-yl)benzamide]
25 | < 250 | O=C(N[C@H]1CCCc2nc(-c3cc(C4CC4)ncc3F)oc21)c1ccnc(OC(F)(F)F)c1 [Compound I-158a, (S)-N-(2-(2-Cyclopropyl-5-fluoropyridin-4-yl)-4,5,6,7-tetrahydrobenzo[d]oxazol-7-yl)-2-(trifluoromethoxy)isonicotinamide]
26 | < 250 | O=C(N[C@H]1CCCc2nc(-c3cc(C4CC4)ncc3F)oc21)c1cccc(OC(F)(F)F)c1 [Compound I-159a, (S)-N-(2-(2-Cyclopropyl-5-fluoropyridin-4-yl)-4,5,6,7-tetrahydrobenzo[d]oxazol-7-yl)-3-(trifluoromethoxy)benzamide]
27 | 250 to 500 | COc1cc(-c2nc3c(o2)[C@@H](NC(=O)c2cncc(C(F)(F)F)n2)CCC3)c(Cl)cn1 [Compound I-161a, (S)-N-(2-(5-Chloro-2-methoxypyridin-4-yl)-4,5,6,7-tetrahydrobenzo[d]oxazol-7-yl)-6-(trifluoromethyl)pyrazine-2-carboxamide]
28 | < 250 | COc1cc(-c2nc3c(o2)[C@@H](NC(=O)c2cc(Cl)cc(Cl)c2)CCC3)c(Cl)cn1 [Compound I-162a, (S)-3,5-Dichloro-N-(2-(5-chloro-2-methoxypyridin-4-yl)-4,5,6,7-tetrahydrobenzo[d]oxazol-7-yl)benzamide]
29 | < 250 | COc1cc(-c2nc3c(o2)[C@@H](NC(=O)c2ccnc(OC(F)(F)F)c2)CCC3)c(Cl)cn1 [Compound I-163a]
30 | < 250 | COc1cc(-c2nc3c(o2)[C@@H](NC(=O)c2cccc(OC(F)(F)F)c2)CCC3)c(Cl)cn1 [Compound I-164a, (S)-N-(2-(5-Chloro-2-methoxypyridin-4-yl)-4,5,6,7-tetrahydrobenzo[d]oxazol-7-yl)-3-(trifluoromethoxy)benzamide]
31 | < 250 | O=C(N[C@H]1CCCc2nc(-c3cc(C4CC4)ncc3F)oc21)c1cccc(C(F)(F)F)c1 [Compound I-165a, (S)-N-(2-(2-Cyclopropyl-5-fluoropyridin-4-yl)-4,5,6,7-tetrahydrobenzo[d]oxazol-7-yl)-3-(trifluoromethyl)benzamide]
32 | < 250 | Cn1nc(C(F)(F)F)cc1C(=O)N[C@H]1CCCc2nc(-c3cc(C4CC4)ncc3F)oc21 [Compound I-166a, (S)—N-(2-(2-Cyclopropyl-5-fluoropyridin-4-yl)-4,5,6,7-tetrahydrobenzo[d]oxazol-7-yl)-1-methyl-3-(trifluoromethyl)-1H-pyrazole-5-carboxamide]
